Assay results reported in article PMC8178125, “The acyl chains of phosphoinositide PIP3 alter the structure and function of nuclear receptor steroidogenic factor-1” (Journal of Lipid Research, 2021).
Values belong to the molecule of their own block, whether it stands above or below them. 5Fam = 5-carboxyfluorescein label on the N-terminus

Columns and labels:
[1] = target: T1, human apo-SF-1 LBD (Homo sapiens, UniProt Q13285, C247S/C412S); assay: Native gel (electromobility) shift assay of equilibrium phosphoinositide binding to apo-SF-1 LBD; conditions: for Kd: apo-SF-1 LBD 1 μM, 37°C 1 h, 1-site binding model, SEM, read-out: apparent Kd of phosphoinositide binding to SF-1 LBD
T1 construct: human SF-1 LBD comprising amino acids 218–461 of human SF-1; 6X-HIS (N, cleaved yes); TEV site (N, cleaved yes); made in house; host or cells: E. coli BL21 (DE3)
T1 sequence (Q13285 218-461 C247S/C412S): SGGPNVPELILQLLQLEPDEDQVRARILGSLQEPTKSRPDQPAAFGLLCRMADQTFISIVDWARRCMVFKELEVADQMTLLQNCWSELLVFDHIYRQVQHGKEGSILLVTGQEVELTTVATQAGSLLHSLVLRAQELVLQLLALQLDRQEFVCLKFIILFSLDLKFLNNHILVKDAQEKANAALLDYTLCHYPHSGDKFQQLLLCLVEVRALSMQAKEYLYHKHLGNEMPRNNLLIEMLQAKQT
Description: Apparent Kd interaction data of phosphoinositides was determined on human apo-SF-1 LBD by a previously described native gel shift assay ([21]) to monitor equilibrium binding to each phosphoinositide. Briefly, apo-SF-1 ligand binding domain was generated using an on-column washout procedure to remove bound phospholipid, wherein pure SF-1 bound to dipalmitoyl PIP3 was loaded onto a Mono Q column and washed with 1.0 L of 20 mM Hepes (8.0), 1 mM EDTA with 2 mM CHAPS at 2 ml/min to remove all bound phospholipid from SF-1 by on-column dilution. The buffer was then changed into 20 mM Hepes (8.0), 1 mM EDTA to remove detergents, and apo-SF-1 eluted using a ammonium acetate gradient, pooled, protein concentration quantitated, and then used in the phosphoinositide binding assay. For the phosphoinositide binding assay, each phosphoinositide was resuspended in water, sonicated, diluted, and stored under nitrogen at 4°C. Phosphoinositides were always re-sonicated immediately before use in binding assays. Two microliters of serially diluted phosphoinositide were added to binding reactions of 25 μl total volume, containing 1 μM final concentration of apo-SF-1 LBD in 20 mM Hepes (8.0), 1 mM EDTA, and 10 mM ammonium acetate in 200 μl polypropylene PCR strip tubes. Binding reactions were incubated at 37°C for 1 h in a PCR thermocycler with a heated reaction cover, the reaction mixed with 3 μl native loading buffer (40% glycerol, 0.005% Ponceau S) and run on a 4% to 16% polyacrylamide Bis-Tris NativePage™ gel (Invitrogen). After fixation and silver staining (BioRad), gels were scanned, the phosphoinositide-shifted band quantitated using NIH image, and apparent Kd determined by nonlinear curve fit to a single-site binding model in GraphPad Prism. Data represent at least three independent replicates.

[2] = target: T1, human apo-SF-1 LBD; parameters: method as in PMID 25288771; conditions: previous work; cited from earlier work
[3] = target: T2, human SF-1 LBD (2CS) (Homo sapiens, UniProt Q13285, C247S/C412S); assay: Fluorescence polarization coactivator binding assay: 5Fam-labeled PGC1α peptide binding to lipid-complexed SF-1 LBD; conditions: SF-1 bound to dioleoyl vs dipalmitoyl PIP3
T2 construct: human SF-1 LBD (218–461) 2CS “Cys-lite” mutant (C247S and C412S); 6X-HIS (N, cleaved yes); TEV site (N, cleaved yes); made in house; host or cells: E. coli BL21 (DE3); peptide purchased from New England Peptide
T2 sequence (Q13285 218-461 C247S/C412S): as above
Description: The same human SF-1 LBD (2CS) construct used for crystallization was complexed with dioleoyl PIP3 and subjected to anion exchange chromatography to separate PIP3-bound species from bacterial phospholipid-bound species. PIP3-bound SF-1 elutes during anion exchange chromatography at higher ionic strength than bacterial phospholipid-bound SF-1 because of the negatively charged phosphates on the PIP3 headgroup. The PIP3-bound and bacterial phospholipid–bound fractions were pooled and concentrated as above, then serially diluted into assay buffer (20 mM Hepes [7.5], 150 mM NaCl) in black-walled 384-well nonprotein binding plates, with 50 μM SF-1 LBD as the highest concentration and a constant 25 μL volume in each well. Reproducibility in the FP assay critically relies on using nonprotein binding plates. To each well, an equal volume of N-terminal 5Fam-labeled PGC1α co-activator peptide (5Fam-EEPSLLKKLLLAPA-OH) was added to a final concentration of 100 nM fluorescently labeled peptide (purchased from New England Peptide). After a 1-h incubation nutating at room temperature in the dark, fluorescence polarization was measured on the Biotek Neo Plate reader at the Vanderbilt High-throughput Screening Center. Data were fit to a standard one-site binding model in GraphPad Prism, and all data represent at least three independent replicates.

[4] = target: T3, SF-1 LBD (Homo sapiens, UniProt Q13285, C247S/C412S); assay: Limited trypsin proteolytic sensitivity assay of SF-1 LBD bound to PIP3; conditions: trypsin:SF-1 1:500 (w/w), 25°C, 60 min time course; compared with PIP3(16:0/16:0)
T3 construct: human SF-1 LBD comprising amino acids 218–461 of human SF-1; 6X-HIS (N, cleaved yes); TEV site (N, cleaved yes); made in house; host or cells: E. coli BL21 (DE3)
T3 sequence (Q13285 218-461 C247S/C412S): as above
Description: Protease selection for limited digestion was carried out by adding elastase, thermolysin, proteinase K, or trypsin to SF-1 LBD in a protease:SF-1 LBD ratio of 1:500 (w/w), followed by incubation at 30 or 60 min and 10% SDS-PAGE followed by Coomassie stain. For determination of SF-1 proteolysis bound by PIP3(16:0/16:0) or PIP3(18:1/18:1), equal amounts of the purified SF-1 LBD used for crystallization without coactivator peptide were incubated with PIP3(16:0/16:0) or PIP3(18:1/18:1) at a protein:PIP3 molar ratio of 1:10, overnight at room temperature, a procedure determined in previous publications to result in complete PIP3 binding to SF-1 LBD. Limited proteolysis analysis was carried out by adding trypsin (Sigma) to SF1-PIP3 in a trypsin:SF-1 ratio of 1:500 (w/w), followed by incubation at 25°C for a 60 min time course. […] Gels were scanned, and the band intensities quantified using Image J (NIH). […]
(also on this page, place not known: Time (min) Relative percentage protection 0.0002*** Supplemental Figure S1:SF-1 dioleoyl is dipalmitoyl PIP3(16:0/16:0). Coomassie-stained trypsin-digested PIP3 species, trypsin treated 60-minute time course, reactions boiled run gel. B.Relative quantitation expressed percentage signal from in lane, quantified using graph comparing either PIP3(16:0/16:0) indicated PIP3(18:1/18:1) indicated trypsin Sidak’smultiple n=3). […]

[5] = target: T4, human SF-1 LBD (218-461) 2CS Cys-lite mutant (C247S and C412S) (human, UniProt Q13285 218-461, C247S | C412S); assay: fluorescence polarisation; SF-1 LBD complexed with dipalmitoyl PIP3(16:0/16:0); 100 nM 5Fam-labeled peptide; 20 mM Hepes (7.5), 150 mM NaCl; 1 h at room temperature; one-site binding model; apparent; conditions: both partners purified
T4 construct: The His tag was removed with TEV; also called steroidogenic factor-1; NR5A1; source: complexed with dioleoyl PIP3, dipalmitoyl PIP3 or co-purifying bacterial phospholipid; not shown: His6, N-terminal, cleaved
T4 sequence (Q13285 218-461 C247S/C412S): as above

[6] = target: T4, human SF-1 LBD (218-461) 2CS Cys-lite …; assay: fluorescence polarisation; SF-1 LBD complexed with dioleoyl PIP3(18:1/18:1), serially diluted from 50 μM; 100 nM 5Fam-labeled peptide; 20 mM Hepes (7.5), 150 mM NaCl; 1 h at room temperature; one-site binding model; conditions: both partners purified
[7] = target: T5, human SF-1 ligand binding domain (218–461) 2CS Cys-lite mutant (C247S and C412S) (human, UniProt Q13285 218-461, C247S | C412S); assay: fluorescence polarisation; SF-1 LBD bound to bacterial phospholipid serially diluted from 50 uM; 100 nM 5Fam-PGC1α peptide; 20 mM Hepes (7.5), 150 mM NaCl; 1 h at room temperature; one-site binding model; apparent Kd; conditions: both partners purified
T5 construct: also called SF-1 LBD; SF-1 LBD (2CS); not shown: His6, N-terminal, cleaved
T5 sequence (Q13285 218-461 C247S/C412S): as above

[8] = target: T4, human SF-1 LBD (218-461) 2CS Cys-lite …; assay: crystal structure; SF-1 LBD complexed with dioleoyl PIP3(18:1/18:1), then with 3-fold molar excess of PGC1α peptide; sitting drop, 20% PEG 3350, 0.2 M magnesium formate, 20°C; conditions: both partners purified

Kd [1]: 130 ± 14 nM
Molecule: CCCCCCCCCCCCCCCC(=O)OC[C@H](COP(=O)(O)OC1C(O)C(OP(=O)(O)O)C(OP(=O)(O)O)C(OP(=O)(O)O)C1O)OC(=O)CCCCCCCCCCCCCCC (stereo partly drawn) [dipalmitoyl PIP3, 1,2-dipalmitoyl-sn-glycero-3-[phosphoinositol-3,4,5-triphophosate]]
affinity for SF-1 [2]: nanomolar affinity

Kd [1]: 71 ± 10 nM
fold lower apparent Kd than dipalmitoyl (16:0/16:0) PIP3 ([1]; dioleoyl vs dipalmitoyl PIP3 binding to SF-1 LBD): 3 fold
fold poorer affinity of PGC1α coactivator peptide for SF-1 compared with dipalmitoyl PIP3 [3]: 6 fold
fold poorer affinity of PGC1α coactivator peptide for SF-1 compared with dipalmitoyl PIP3 ([3]; listed as Dioleoyl PIP3(18:1/18:1)): ≥ 5 fold
trypsin protease sensitivity of SF-1 bound to the lipid [4]: increased trypsin protease sensitivity
Molecule: CCCCCCCC/C=C\CCCCCCCC(=O)OC[C@H](COP(=O)(O)OC1C(O)C(OP(=O)(O)O)C(OP(=O)(O)O)C(OP(=O)(O)O)C1O)OC(=O)CCCCCCC/C=C\CCCCCCCC (stereo partly drawn) [dioleoyl PIP3, 1,2-di-(9Z-octadecenoyl)-sn-glycero-3-[phosphoinositol-3,4,5-trisphosphate]]

Kd [1]: 348 ± 42 nM
Molecule: CCCCCCCCCCCCCCCC(=O)OCC(COP(=O)(O)OC1C(O)C(O)C(OP(=O)(O)O)C(OP(=O)(O)O)C1O)OC(=O)CCCCCCCCCCCCCCC (stereo not drawn) [dipalmitoyl (16:0/16:0) PIP2]

Kd [5]: 7700 ± 1400 nM
Kd [6]: > 42000 nM
B1: N-terminal 5Fam-labeled PGC1α co-activator peptide (5Fam-EEPSLLKKLLLAPA-OH) (peptide)
peptide: 5Fam-EEPSLLKKLLLAPA-OH
notes: also called fluorophore-labeled PGC1α peptide; fluorescently labeled peptide; source: synthetic peptide, bought: New England Peptide

Kd [7]: 6800 ± 2000 nM
B2: N-terminal 5Fam-labeled PGC1α co-activator peptide (5Fam-EEPSLLKKLLLAPA-OH) (peptide)
peptide: 5Fam-EEPSLLKKLLLAPA-OH
notes: the validation report numbers the modelled residues P141-A152 (D2:p5); also called PGC1α peptide; fluorophore-labeled PGC1α peptide; source: synthetic peptide; bought: New England Peptide

binding result [8]: binds
B3: synthetic peptide representing the human PGC1α co-activator (H3N-EEPSLLKKLLLAPA-OH) (peptide)
peptide: H-EEPSLLKKLLLAPA-OH
notes: Unlabelled peptide used for co-crystallisation, free N- and C-termini as printed; also called PGC1α peptide; source: synthetic peptide, bought: New England Peptide
